Experimental findings from patent US5385918A, “Aminomethylene-peptides as immunosuppressants” (Miles Inc., priority 1993, dated 1995) are described below.

The test system of one assay is human T-cells. As to the kind of experiment: Suppression of Human T-Cell Proliferation Assay (PHA-stimulated, [3H]-thymidine incorporation). The format is cell-based. The following applies: inhibition of [3H]-thymidine incorporation of PHA-stimulated purified human T-cells, 72 hours. An excerpt: Inhibition of mitogen-induced T-cell proliferation can be used to profile immunosuppressive activity of test compounds. In the description of the assay which follows, mitogen-induced T-cell proliferation was used to test the inhibitory potencies of select compounds of the present invention.
In an assay similar to that described by Bradley in Mishell et al. (Eds.), 1980, Selected Methods in Cellular Immunology, pp 156-161, W. H. Freeman & Co., San Fransisco, Calif., T-cells were stimulated by incubation with phytohemagglutinin (PHA) which binds to cell surface molecules, including the T-cell receptor. This stimulation results in proliferation which can be measured by incorporation of [^3 H]-thymidine into cellular DNA.
Fresh LeukoPaks were obtained from the New York Blood Center, New York, N.Y. The cells, including erythrocytes and leukocytes, were diluted with Hank's Balanced Salt Solution (HBSS) (GIBCO, Grand Island, N.Y.) and layered over Lymphoprep (Nycomed Pharma AS, Oslo, Norway) in sterile 50 ml conical centrifuge tubes. Lymphocytes were isolated at the Hank's/Nycomed interface after centrifugation at 2000×g, 4° C. for 15 min. The lymphocytes were washed with Minimal Essential Medium (GIBCO) containing 2% fetal bovine serum (FBS) (Sigma Chemical Co., St. Louis, Mo.), 1% HEPES buffer (GIBCO) and 1% Penicillin-Stretomycin solution (GIBCO).
T-cells were further purified essentially by sheep erythrocyte (SRBC) rosetting as described by Morimoto et al., 1983, J. Immunol. 130:157. The isolated lymphocytes were adjusted to 2×10^7 cells/ml and 5 ml aliquots of the cell suspension were incubated for 10 minutes at room temperature with 5 ml of a 5% SRBC (Cappel, Organon Technika Corp., West Chester, Pa.) suspension. The cells were gently pelleted by centrifugation at 300 rpm for 10 minutes, followed by a 1 hour incubation at room temperature to allow rosette formation. The cells were gently resuspended,layered over Lymphoprep and centrifuged for 30 minutes at 500×g. The pellet, containing rosetted T-cells and SRBC was treated with ice cold buffered ammonium chloride (GIBCO) to lyse the erythrocytes. T-cells were washed twice with HBSS.
Purified T-cells were resuspended at 2×10^6 cells/ml in complete culture medium composed of RPMI-1640 (Whittaker Bioproducts, Walkerville, Md.) with 10% FBS (Sigma), 2 mM L-glutamine (GIBCO), 1% Penicillin-Streptomycin (GIBCO) and 15 mM HEPES (GIBCO). In 96-well plates (Becton Dickinson, Lincoln Park, N.J.), 0.1 ml aliquots of T-cell suspension were mixed with 0.05 ml of 40 μg/ml PHA-M (Sigma). The compounds of this invention were dissolved in dimethylsulfoxide at 10 mM and various dilutions in complete medium were added in duplicate wells (0.05 ml/well). The plates were incubated at 37° C. in a humidified atmosphere of 5% carbon dioxide and 95% air for 72 hours.
Proliferation was assessed by measurement of [^3 H]-thymidine incorporation. During the last 6 hours of incubation, the cells were pulse labelled with 1 μCi/well of [^3 H]-thymidine (New England Nuclear, Boston, Mass.). The cells were harvested onto glass fiber paper using a plate harvester and the radioactivity incorporated into cellular DNA corresponding to individual wells was measured by standard liquid scintillation counting methods. The mean counts per minute (CPM) of replicate wells was calculated and linear regression analysis of mean CPM versus compound concentration was used to determine the concentration of compound which would inhibit [^3 H]-thymidine incorporation of T-cells by 50% (IC50).

A further assay deals with FKBP (Homo sapiens, UniProt P62942). As to the kind of experiment: PPIase Inhibition Assay. To be noted: inhibition of PPIase activity of FKBP, substrate Succinyl-Ala-Phe-Pro-Phe-para-nitroanilide. In kind it is biochemical. As to the method: This assay follows in principle the procedure described in Kofron et al., 1991, Biochemistry 30:6127. The three main reagents used are PPIase, a substrate for PPIase, and a selected inhibitor compound of the present invention. The basic principle behind this assay is the conversion of the cis isomer of the substrate to the trans form, which conversion is catalyzed by PPIase. Essentially, inhibition of this PPIase activity is measured for the selected compounds. A peptide chymotrypsin substrate containing a proline in the P2 position is only cleaved by chymotrypsin when the Phe-Pro bond is in the trans isomeric configuration. In the presence of excess chymotrypsin, all of the trans peptide isomers are cleaved within approximately five seconds, leaving only cis forms.
The cis peptide will spontaneously convert to the trans isomer at a slow rate. The cis to trans conversion is catalyzed by isomerases at a much faster rate than this spontaneous conversion. Proteins with PPIase activity are examples of such isomerases. After isomerization, the peptide is cleaved by chymotrypsin releasing p-nitroaniline which can be monitored at 390 nm. The rate of release is then calculated using a first order rate plus offset equation utilizing the ENZFITTER program (Leatherbarrow, BIOSOFT, Cambridge, United Kingdom).
In a plastic cuvette are added 950 ul of ice cold assay buffer (25 mM HEPES, pH 7.8, 100 mM NaCl), 10 uL of FKBP (2.5 uM in 10 mM Tris-Cl pH 7.5, 100 mM NaCl, 1 mM dithiothreitol), 25 ul of chymotrypsin (50 mg/ml in 1 mM HCl) and 10 ul of the test compound at various concentrations in dimethyl sulphoxide. The reaction is initiated by addition of 5 ul of substrate (Succinyl-Ala-Phe-Pro-Phe-para-nitroanilide, 5 mg/ml in 235 mM LiCl in trifluoroethanol).
The absorbance at 390 nm versus time is monitored for 90 sec using a Beckman DU70 spectrophotometer. The absorbance versus time data files are transferred to an IBM XT computer and the rate constants determined using the commercial Enzfitter program. For each set of data, the uncatalyzed rate of conversion is measured and the uninhibited enzymatic rate determined. The data are expressed as % Inhibition and are calculated as follows: [formula] where kobs is the rate in the presence of a selected test compound, kuncat is the rate in the absence of enzyme, and kuninh is the rate in the presence of enzyme and absence of inhibitor. Data are plotted as percent inhibition versus concentration of inhibitor. The values of the concentration of inhibitor required for 50% inhibition of enzyme activity (IC50) were determined by nonlinear least squares regression analysis.

One may read the IC50 as the point on the concentration scale where inhibition reaches its midpoint.

Sequence of FKBP (P62942 whole entry): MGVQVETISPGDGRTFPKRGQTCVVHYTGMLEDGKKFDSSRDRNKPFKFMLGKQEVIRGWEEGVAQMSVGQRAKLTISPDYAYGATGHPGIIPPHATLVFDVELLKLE

With `CC[C@H](C)[C@H](NC(=O)[C@@H]1CCCN1CC(CC(C)C)NC(=O)OC(C)(C)C)C(=O)OCc1ccccc1` (stereo partly drawn) [Example 5, 1-[1-[2-[[(1,1-Dimethylethoxy)carbonyl]amino]-4-methylpentyl]-L-proline]-L- Isoleucine Phenylmethyl Ester], the IC50 in the assay on human T-cells turned out to be 27 µM; on FKBP, 3 µM.

For the compound `COC(=O)[C@H](Cc1ccc(OC)cc1)N(C)C(=O)[C@@H]1CCCN1C[C@H](CC(C)C)NC(=O)OC(C)(C)C` [Example 9, 1-Methyl-1-[1-[2-(S)-[[(1,1-dimethylethoxy)carbonyl]amino]-4-methylpentyl]-L-proline]-L-Tyrosine(O-Methyl)Methyl Ester], the values for the IC50 in the assay on human T-cells and against FKBP were 16 µM and > 50 µM, respectively. As for `CC[C@H](C)[C@H](NC(=O)[C@@H]1CCCN1C[C@H](CC(C)C)NC(=O)[C@H](CC(N)=O)NC(=O)OC(C)(C)C)C(=O)OCc1ccccc1` [Example 10, 1-[1-[2-(S)-[[4-Amino-2-(S)-[[(1,1-dimethylethoxy)-carbonyl]amino]-1,4-dioxobutyl]amino]-4-methylpentyl]-L-proline]-L-isoleucine Phenylmethyl Ester], the IC50 in the assay on human T-cells worked out at 30 µM; on FKBP, 0.9 µM. In the case of `CC[C@H](C)[C@H](NC(=O)[C@@H]1CCCN1CC(CC(C)C)NC(=O)[C@H](CC1CCCCC1)NC(=O)OC(C)(C)C)C(=O)OCc1ccccc1` (stereo partly drawn) [Example 11, 1-[1-[2-[[3-Cyclohexyl-2-(S)-[[(1,1-dimethylethoxy)-carbonyl]amino]-1-oxopropyl]amino]-4-methylpentyl]-L-proline]-L-isoleucine Phenylmethyl Ester], the IC50 in the assay on human T-cells is < 6 µM; at FKBP, 8.4 µM. Turning to `CC[C@H](C)[C@H](NC(=O)[C@@H]1CCCN1C[C@H](CC(C)C)NC(=O)[C@@H](N)CC(N)=O)C(=O)OCc1ccccc1` [Example 12], the IC50 is < 6 µM in the assay with human T-cells and 2.4 µM at FKBP. As for `CC[C@H](C)[C@H](NC(=O)[C@@H]1CCCN1C[C@H](CC(C)C)NC(=O)[C@@H](N)CC1CCCCC1)C(=O)OCc1ccccc1` [Example 13, 1-[1-[2-(S)-[[2-(S)-amino-3-cyclohexyl-1-oxopropyl]-amino]-4-methylpentyl]-L-proline]-L-isoleucine Phenylmethyl Ester], the values for the IC50 in the assay with human T-cells and against FKBP were < 6 µM and 1.3 µM, respectively.

Consider `CC[C@H](C)[C@H](NC(=O)[C@@H]1CCCN1C[C@H](CC(C)C)NC(=O)[C@H](CC(N)=O)NC(=O)[C@@H](N)Cc1ccccc1)C(=O)OCc1ccccc1` [Example 15, 1-[1-[2-(S)-[[1-[2-(S)-Amino-1-Oxo-3-phenylpropyl]-L-asparaginyl]amino]-4-methylpentyl]-L-proline]-L-isoleucine Phenylmethyl Ester], for which, at FKBP, the half-inhibitory concentration (IC50) is 2.5 µM. In turn, `CC[C@H](C)[C@H](NC(=O)[C@@H]1CCCCN1C[C@@H](NC(=O)C(C)(C)C)[C@@H](C)CC)C(=O)NCc1ccccc1` [Example 21, 1-[1-[2-(S)-[(2,2-Dimethyl-propionyl)-amino]-3-(S)-methylpentyl]-L-homoproline]-L-isoleucine benzylamide] displayed a concentration for half-maximal inhibition (IC50) in the assay with human T-cells of 0.72 µM.

In the assay with human T-cells, `CC[C@H](C)[C@H](NC(=O)[C@@H]1CCCCN1C[C@@H](NC(=O)CC(C)(C)C)[C@@H](C)CC)C(=O)NCc1ccccc1` [Example 22, 1-[1-[2-(S)-[(3,3-dimethyl-butyryl)-amino]-3-(S)-methylpentyl]-L-homoproline]-L-isoleucine benzylamide] displayed an IC50 of 1 µM. On to `CC[C@H](C)[C@H](NC(=O)[C@@H]1CCCCN1C[C@@H](NC(=O)CC(C)C)[C@@H](C)CC)C(=O)NCc1ccccc1` [Example 23, 1-[1-[2-(S)-[(3-methyl-butyryl)-amino]-3-(S)-methylpentyl]-L-homoproline]-L -isoleucine benzylamide], for which 0.9 µM corresponded to half-maximal inhibition in the assay on human T-cells (IC50). As for `CCCC(=O)N[C@H](CN1CCCC[C@H]1C(=O)N[C@H](C(=O)NCc1ccccc1)[C@@H](C)CC)[C@@H](C)CC` [Example 24], the IC50 with human T-cells stood at 1.7 µM.
